The data set can be described thus: MTT cellular viability assay, 293. As to conditions: human, 293 cells (human kidney epithelial cell line, ATCC CRL-1573), Example 7, FIG. 5, normal cell line 293. Format: cell-based.

The compound `CC(=O)O[C@H]1C(=O)[C@@]2(C)[C@H]([C@H](OC(=O)c3ccccc3)[C@]3(O)C[C@H](OC(=O)[C@H](O)[C@@H](NC(=O)c4ccccc4)c4ccccc4)C(C)=C1C3(C)C)[C@]1(OC(C)=O)CO[C@@H]1C[C@@H]2O` [TAXOL] had a viability at 24 h of 20 to 25%.
